Data from ChEMBL document CHEMBL4483862, “Open-source discovery of chemical leads for next-generation chemoprotective antimalarials” (2018).

System: Plasmodium berghei
Assay: Luciferase/luciferin-expressing antifolate-resistant parasites were used to infect a culture of HepG2 cells that were pre-incubated with compounds. Infected hepatocytes emit light due to the luciferase reaction. Assay results are presented as the percent inhibition of light emission compared to control. […]
Type: functional
Settings: sporozoite; for IC90: read-out: LUCIFERASE INFECTION ASSAY - IC90

| Structure (SMILES) | IC90 [µM] | further results |
| --- | --- | --- |
| CCn1nc(C)cc1-c1nnc(Sc2ncc([N+](=O)[O-])s2)n1C | 8.02 | IC50 (FFLUC_HILL_SLOPE 4.24, FFLUC_R_SQUARED 0.134, HEPG2TOX_HILL_SLOPE 11.7, HEPG2TOX_R_SQUARED 0.968, PBLUC_HILL_SLOPE 3.63, PBLUC_R_SQUARED 0.242, read-out: LUCIFERASE INFECTION ASSAY - IC50): 4.38 µM |
| O=C1NC(c2ccccc2)=C(c2nc3ccccc3s2)C(c2cccs2)N1 (stereo unspecified) | > 10 | IC50 (FFLUC_HILL_SLOPE 4.26, FFLUC_R_SQUARED 0.397, PBLUC_HILL_SLOPE 0.406, PBLUC_R_SQUARED 0.487, read-out: LUCIFERASE INFECTION ASSAY - IC50): 3.85 µM |
| Cc1ccc2c(CSc3nc(N)c(C#N)cc3C#N)cc(=O)oc2c1C | 2.94 | IC50 (FFLUC_HILL_SLOPE 4.09, FFLUC_R_SQUARED 0.386, HEPG2TOX_HILL_SLOPE 1.27, HEPG2TOX_R_SQUARED 0.917, PBLUC_HILL_SLOPE 1.89, PBLUC_R_SQUARED 0.826, read-out: LUCIFERASE INFECTION ASSAY - IC50): 0.918 µM |
| CC(=O)Nc1ccc(/C=C2\COc3c(Cl)cc(Cl)cc3C2=O)cc1 | > 10 | IC50 (FFLUC_HILL_SLOPE 4.35, FFLUC_R_SQUARED 0.359, read-out: LUCIFERASE INFECTION ASSAY - IC50): > 10 µM |
| C=CCN(c1ccccc1)S(=O)(=O)c1cccc(C(=O)Nc2ccc(CCCC)cc2)c1 | > 10 | IC50 (FFLUC_HILL_SLOPE 3.89, FFLUC_R_SQUARED 0.431, PBLUC_HILL_SLOPE 2.64, PBLUC_R_SQUARED 0.773, read-out: LUCIFERASE INFECTION ASSAY - IC50): 5.84 µM |
| Cc1cc(NC(=O)C(Nc2ccc(N3CCCC3)c(C)c2)c2ccccc2)no1 (stereo unspecified) | > 10 | IC50 (FFLUC_HILL_SLOPE 3.98, FFLUC_R_SQUARED 0.653, PBLUC_HILL_SLOPE 2, PBLUC_R_SQUARED 0.333, read-out: LUCIFERASE INFECTION ASSAY - IC50): > 10 µM |
| Cc1cccc(C)c1NC(=O)N1[C@@H]2CC[C@@H](C2)[C@H]1c1nc2c(OCCC3CCCCC3)cccc2[nH]1 | > 10 | IC50 (FFLUC_HILL_SLOPE 3.83, FFLUC_R_SQUARED 0.822, PBLUC_HILL_SLOPE 12.1, PBLUC_R_SQUARED 0.296, read-out: LUCIFERASE INFECTION ASSAY - IC50): 9.48 µM |
| Cc1onc(-c2ccc(Cl)cc2)c1-c1ccnc(SCC(=O)Nc2ccc(Cl)cc2)n1 | > 7 | IC50 (FFLUC_HILL_SLOPE 3.87, FFLUC_R_SQUARED 0.391, HEPG2TOX_HILL_SLOPE 3.01, HEPG2TOX_R_SQUARED 0.647, PBLUC_HILL_SLOPE 15.9, PBLUC_R_SQUARED 0.148, read-out: LUCIFERASE INFECTION ASSAY - IC50): 6.77 µM |
| Cc1cc(CN(C)CC(=O)Nc2sc3c(c2C(=O)Nc2ccc(Cl)cc2)CCCC3)no1 | > 10 | IC50 (FFLUC_HILL_SLOPE 4.26, FFLUC_R_SQUARED 0.612, PBLUC_HILL_SLOPE 24.8, PBLUC_R_SQUARED 0.242, read-out: LUCIFERASE INFECTION ASSAY - IC50): 9.19 µM |
| CN(C)c1ccc(C(=O)Nc2cnc3ccccc3c2)cc1 | > 10 | IC50 (FFLUC_HILL_SLOPE 4.08, FFLUC_R_SQUARED 0.429, HEPG2TOX_HILL_SLOPE 2.09, HEPG2TOX_R_SQUARED 0.742, PBLUC_HILL_SLOPE 0.628, PBLUC_R_SQUARED 0.448, read-out: LUCIFERASE INFECTION ASSAY - IC50): 0.554 µM |
| Cc1ccc(C2=NN=C/C2=N\Nc2cc(Cl)cc(Cl)c2)cc1 | 3.57 | IC50 (FFLUC_HILL_SLOPE 4.14, FFLUC_R_SQUARED 0.778, HEPG2TOX_HILL_SLOPE 3.13, HEPG2TOX_R_SQUARED 0.962, PBLUC_HILL_SLOPE 34.3, PBLUC_R_SQUARED 0.21, read-out: LUCIFERASE INFECTION ASSAY - IC50): 3.34 µM |
| O=C(Nc1ccc(Oc2cc(C(F)(F)F)cc(C(F)(F)F)c2)cc1)Nc1ccc(OC(F)(F)F)cc1 | 0.304 | IC50 (FFLUC_HILL_SLOPE 4.18, FFLUC_R_SQUARED 0.0377, HEPG2TOX_HILL_SLOPE 3.88, HEPG2TOX_R_SQUARED 0.972, PBLUC_HILL_SLOPE 90.6, PBLUC_R_SQUARED 0.773, read-out: LUCIFERASE INFECTION ASSAY - IC50): 0.297 µM |
| Oc1c(C(Nc2ccccn2)c2ccsc2)cc(Cl)c2cccnc12 (stereo unspecified) | > 8.97 | IC50 (FFLUC_HILL_SLOPE 4.25, FFLUC_R_SQUARED 0.273, HEPG2TOX_HILL_SLOPE 7.18, HEPG2TOX_R_SQUARED 0.784, PBLUC_HILL_SLOPE 2.69, PBLUC_R_SQUARED 0.266, read-out: LUCIFERASE INFECTION ASSAY - IC50): 4.02 µM |
| CCn1cc(C(=O)OCC(=O)N2N=C3/C(=C/c4ccccc4)CCCC3C2c2ccccc2)c(=O)c2ccc(C)nc21 (stereo unspecified) | 9.47 | IC50 (FFLUC_HILL_SLOPE 4.43, FFLUC_R_SQUARED 0.284, HEPG2TOX_HILL_SLOPE 6.55, HEPG2TOX_R_SQUARED 0.133, PBLUC_HILL_SLOPE 3.84, PBLUC_R_SQUARED 0.345, read-out: LUCIFERASE INFECTION ASSAY - IC50): 5.34 µM |
| COc1ccc(OC)c(-c2csc(NC(=O)c3c(C)nc(C(C)C)nc3SC)n2)c1 | > 10 | IC50 (FFLUC_HILL_SLOPE 4.18, FFLUC_R_SQUARED 0.209, HEPG2TOX_HILL_SLOPE 6.05, HEPG2TOX_R_SQUARED 0.136, PBLUC_HILL_SLOPE 1.9, PBLUC_R_SQUARED 0.115, read-out: LUCIFERASE INFECTION ASSAY - IC50): > 10 µM |
| CC(C)c1ccc(S(=O)(=O)c2ccc(NNC(=O)c3ccccc3OCc3ccc(Cl)cc3)cc2)cc1 | > 10 | IC50 (FFLUC_HILL_SLOPE 4.22, FFLUC_R_SQUARED 0.402, PBLUC_HILL_SLOPE 10.9, PBLUC_R_SQUARED 0.175, read-out: LUCIFERASE INFECTION ASSAY - IC50): 8.49 µM |
| O=C(Nc1ccc(SC(F)(F)F)cc1)Nc1ccc(Oc2ccc(Cl)cc2Cl)nc1 | 5.98 | IC50 (FFLUC_HILL_SLOPE 4.22, FFLUC_R_SQUARED 0.441, HEPG2TOX_HILL_SLOPE 15.8, HEPG2TOX_R_SQUARED 0.933, PBLUC_HILL_SLOPE 1.66, PBLUC_R_SQUARED 0.482, read-out: LUCIFERASE INFECTION ASSAY - IC50): 1.59 µM |
| Oc1c(C(c2ccc(Cl)cc2)c2cc(Cl)c3cccnc3c2O)cc(Cl)c2cccnc12 | 2.32 | IC50 (FFLUC_HILL_SLOPE 4.28, FFLUC_R_SQUARED 0.979, HEPG2TOX_HILL_SLOPE 0.496, HEPG2TOX_R_SQUARED 0.799, PBLUC_HILL_SLOPE 1.82, PBLUC_R_SQUARED 0.848, read-out: LUCIFERASE INFECTION ASSAY - IC50): 0.693 µM |
| CCN(CC)c1ccc(/C=C2\CCc3cnn(-c4nc(-c5ccccc5)cs4)c32)cc1 | > 10 | IC50 (FFLUC_HILL_SLOPE 3.85, FFLUC_R_SQUARED 0.639, read-out: LUCIFERASE INFECTION ASSAY - IC50): > 10 µM |
| CN(C)c1cccc(-c2cnc3sc(NCc4ccc(F)cc4)nn23)c1 | > 8.98 | IC50 (FFLUC_HILL_SLOPE 4.01, FFLUC_R_SQUARED 0.615, PBLUC_HILL_SLOPE 7.46, PBLUC_R_SQUARED 0.677, read-out: LUCIFERASE INFECTION ASSAY - IC50): 7.83 µM |
| Cc1ccc(C2=NN(C(=O)c3ccccc3)C(c3ccccc3O)C2)cc1 (stereo unspecified) | 8.37 | IC50 (FFLUC_HILL_SLOPE 4.22, FFLUC_R_SQUARED 0.285, HEPG2TOX_HILL_SLOPE 3.02, HEPG2TOX_R_SQUARED 0.969, PBLUC_HILL_SLOPE 1.84, PBLUC_R_SQUARED 0.813, read-out: LUCIFERASE INFECTION ASSAY - IC50): 2.54 µM |
| CC(C)NC(=O)N1CCCC(C(=O)Nc2nc3ccccc3[nH]2)C1 (stereo unspecified) | 4 | IC50 (FFLUC_HILL_SLOPE 4.02, FFLUC_R_SQUARED 0.256, PBLUC_HILL_SLOPE 1.51, PBLUC_R_SQUARED 0.42, read-out: LUCIFERASE INFECTION ASSAY - IC50): 0.935 µM |
| NC(=NNC(=S)Nc1ccc(Cl)cc1)c1ccccn1 | > 10.8 | IC50 (FFLUC_HILL_SLOPE 4.43, FFLUC_R_SQUARED 0.823, PBLUC_HILL_SLOPE 0.754, PBLUC_R_SQUARED 0.703, read-out: LUCIFERASE INFECTION ASSAY - IC50): 1.71 µM |
| Cc1ccc(C(C#N)c2ccc(NN)nn2)cc1 (stereo unspecified) | > 13.8 | IC50 (FFLUC_HILL_SLOPE 3.94, FFLUC_R_SQUARED 0.836, read-out: LUCIFERASE INFECTION ASSAY - IC50): > 13.8 µM |
| O=C1C(c2ccccc2)=C(Nc2cc(C(F)(F)F)cc(C(F)(F)F)c2)c2ccccc21 | 0.879 | IC50 (FFLUC_HILL_SLOPE 4.26, FFLUC_R_SQUARED 0.731, HEPG2TOX_HILL_SLOPE 18.3, HEPG2TOX_R_SQUARED 0.933, PBLUC_HILL_SLOPE 2.24, PBLUC_R_SQUARED 0.855, read-out: LUCIFERASE INFECTION ASSAY - IC50): 0.329 µM |
| CCc1cccc(CC)c1N(C(C)=O)c1nc(/C=C/C(=O)c2cc3ccccc3o2)cs1 | 6.49 | IC50 (FFLUC_HILL_SLOPE 3.93, FFLUC_R_SQUARED 0.771, PBLUC_HILL_SLOPE 5.3, PBLUC_R_SQUARED 0.865, read-out: LUCIFERASE INFECTION ASSAY - IC50): 4.29 µM |
| N#Cc1nc(-c2ccccc2)nc2[nH]c(-c3ccccc3)c(C#N)c12 | 9.81 | IC50 (FFLUC_HILL_SLOPE 4.02, FFLUC_R_SQUARED 0.58, HEPG2TOX_HILL_SLOPE 1.18, HEPG2TOX_R_SQUARED 0.976, PBLUC_HILL_SLOPE 16.6, PBLUC_R_SQUARED 0.228, read-out: LUCIFERASE INFECTION ASSAY - IC50): 8.59 µM |
| C=CCNc1sc(C(=O)/C(C#N)=C2\Nc3ccccc3S2)c(N)c1C(=O)Nc1ccc(Cl)cc1 | 4.13 | IC50 (FFLUC_HILL_SLOPE 4, FFLUC_R_SQUARED 0.164, HEPG2TOX_HILL_SLOPE 6.65, HEPG2TOX_R_SQUARED 0.57, PBLUC_HILL_SLOPE 11, PBLUC_R_SQUARED 0.696, read-out: LUCIFERASE INFECTION ASSAY - IC50): 3.38 µM |
